The record followed here is US20250188075A1, “SUBSTITUTED HETEROCYCLIC CSNK1 INHIBITORS” (The Broad Institute, Inc., priority 2022, published 2025).

Read-outs that look alike come from different tables or passages of the source.

For one data set, the system named is total-p53 in MCF-7 cells. Description: HTRF total-p53 in MCF-7 cells. The data set is classed as cell-based. As to conditions: median, read-out: HTRF total-p53 MCF-7, IC50 - [mol/l] (median). On the procedure: Day 1: MCF-7 cells were seeded (10,000 cells in 12 μl/well) in a 384-well-Small Volume-plate (Greiner Bio One #784075) in culture medium (RPMI 1640; (Biochrom; #F 1275; without PhenolRed)+FCS (final: 10%); (Biochrom; #S 0415)+Insulin (bovine); (final: 10 μg/mL, Biochrom; #K 3510)+L-Alanyl-L-Glutamine; (final: 2 mM, Biochrom; #K 0302)+Natriumpyruvat; (final: 1 mM, Biochrom; #L 0473)+Non Essentiell Amino Acids; (final: 1×, Biochrom; #K 0293)). The cells were then treated with different compounds or DMSO (added with the HP Dispenser) and incubated for 2 h at 37° C. Following incubation, the cells were lysed in 4 μl of lysis buffer for 1 h shaking at RT. Finally, 4 μl of antibody solution was added and the samples are incubated overnight at RT, shaking.
Total-p53 was detected in a sandwich assay format using 2 different specific antibodies, one labeled with Eu3+-Cryptate (donor) and the second with d2 (acceptor). Kit: HTRF total p53 detection assay (Cisbio Cat: 64T53PEG).
Day 2: the plate was read on PHERAstar FS (BMG Labtech settings; optic module: HTRF; integration start: 60 us; integration time: 400 μs; flash lamp). IC50 values were calculated using the DRC application in ShiNy Analysis Platform-SNAP.”
A general note: In TR-FRET formats the signal depends on donor and acceptor labels being close together.

The next data set concerns LoVo cells. Description: LoVo cell proliferation assay, CTG method. As to conditions: 96 h, median, read-out: 2D-PROLI LoVo CTG 96 h, IC50 - [mol/l] (median). The data set is classed as cell-based. On the procedure: CELL PROLIFERATION ASSAY CTG METHOD, 384-well version: Day 1: plate 400 cells/30 μL/well in growth medium (RPMI 1640 (Gibco #61870-10; with Glutamax)+10% FBS) in 384-well black plates (Corning #3571). Plated sister wells in a separate plate for time zero determination. Incubated all plates overnight at 37° C. Day 2: added test compounds in serial dilutions using the HP D300 Digital Dispenser and incubate at 37° C. for 96 h. Measured time zero plate: add 30 μL/well CTG solution (Promega CellTiter-Glo solution (catalog #G7573)) to wells in time zero plate; incubated for 2 minutes in a orbital shaker to induce cell lysis; allowed the plate to incubate at room temperature for additional 10 min to stabilize luminescent signal and read luminescence on PheraStar (rapid mode-0.02 sec/well; GAIN 3000). Day 6: Added 30 μL/well CTG solution to all test wells, incubated for 2 minutes in a orbital shaker to induce cell lysis; allowed the plate to incubate at room temperature for additional 10 min to stabilize luminescent signal and read luminescence on PheraStar (rapid mode-0.02 sec/well; GAIN 3000). Proliferation IC50s were calculated using the DRC application in ShiNy Analysis Platform-SNAP.”

Data set [1] in a line: Solubility assay (thermodynamic solubility). As to conditions: aqueous buffer; for solubility thermodynamic at 24 h: thermodynamic from solid, mean. It counts as physicochemical.
Another data set addresses human CSNK1A1 (Homo sapiens (Human), UniProt P48729). Description: CSNK1A1 assay (ADP-Glo, 1 μM ATP). The data set is classed as biochemical. As to conditions: median, read-out: CSNK1A1 Low ATP IC50 [mol/l] (median). The method, then:
CSNK1A1-inhibitory activity of compounds of the present invention in presence of 1 μM adenosine-tri-phosphate (ATP) was quantified employing the CSNK1A1 assay as described in the following paragraphs. In essence, the enzyme activity is measured by quantification of the adenosine-di-phosphate (ADP), which is generated as a co-product of the enzyme reaction, via the “ADP-Glo™ Kinase Assay” kit from the company Promega. This detection system works as follows: In a first step the ATP not consumed in the kinase reaction is quantitatively converted to CAMP employing an adenylate cyclase (“ADP-Glo-reagent”), then the adenylate cyclase is stopped and the ADP generated in the kinase reaction converted to ATP which generates in a luciferase-based reaction a glow-luminescence signal (“Kinase Detection Reagent”).
Recombinant fusion protein of N-terminal Glutathion-S-Transferase (GST) and full-length human CSNK1A1, expressed by baculovirus infected insect cells and purified via Glutathion affinity chromatography, was purchased from Life Technologies (product no. PV4174) and used as enzyme. As substrate for the kinase reaction the biotinylated peptide biotin-Ahx-KRRRAL-pS-VASLPGL (C-terminus in amide form) was used which can be purchased e.g. from the company Biosyntan (Berlin-Buch, Germany).
For the assay 50 nl of a 100-fold concentrated solution of the test compound in DMSO was pipetted into a white 1536-well microtiter plate (Greiner Bio-One, Frickenhausen, Germany), 2 μL of a solution of CSNK1A1 in aqueous assay buffer [50 mM HEPES pH 7.5, 10% (v/v) glycerol, 10 mM MgCl2, 50 mM NaCl, 1 mM dithiothreitol, 0.01% (w/v) bovine serum albumin, 0.01% (v/v) Triton X-100] were added and the mixture was incubated for 15 min at 22° C. to allow pre-binding of the test compounds to the enzyme before the start of the kinase reaction. Then the kinase reaction was started by the addition of 3 μL of a solution of ATP (1.67 μM=>final conc. in the 5 μL assay volume is 1 μM) and peptide substrate (50 μM=>final conc. in the 5 μL assay volume is 30 μM) in assay buffer and the resulting mixture was incubated for a reaction time of 30 min at 22° C. The concentration of CSNK1A1 was adjusted depending of the activity of the enzyme lot and was chosen appropriate to have the assay in the linear range, a typical concentrations are about 0.0375 ng/μL. The reaction was stopped by the addition of 2.5 μL of “ADP-Glo-reagent” (1:1.5 fold diluted with water) and the resulting mixture was incubated at 22° C. for 1 h to convert the ATP not consumed in the kinase reaction completely to CAMP. Subsequently 2.5 μL of the “kinase detection reagent” (1.2 fold more concentrated than recommended by the producer) were added, the resulting mixture was incubated at 22° C. for 1 h and then the luminescence measured with a suitable measurement instrument (e.g. Viewlux™ from Perkin-Elmer). The amount of emitted light was taken as a measure for the amount of ADP generated and thereby for the activity of the CSNK1A1.
The data were normalised (enzyme reaction without inhibitor=0% inhibition, all other assay components but no enzyme=100% inhibition).
(In general: ADP-Glo first removes unused ATP, then detects ADP through luciferase.)

Where [2] appears, read: Homo sapiens, MCF7, 2 h incubation.
The mark [3] stands for this setting: read-out: Thermodynamic Solubility [mg/l] (mean).
Where [4] appears, read: read-out: Thermodynamic Solubility [μmol/L] (mean).

human CSNK1A1, sequence (P48729 whole entry): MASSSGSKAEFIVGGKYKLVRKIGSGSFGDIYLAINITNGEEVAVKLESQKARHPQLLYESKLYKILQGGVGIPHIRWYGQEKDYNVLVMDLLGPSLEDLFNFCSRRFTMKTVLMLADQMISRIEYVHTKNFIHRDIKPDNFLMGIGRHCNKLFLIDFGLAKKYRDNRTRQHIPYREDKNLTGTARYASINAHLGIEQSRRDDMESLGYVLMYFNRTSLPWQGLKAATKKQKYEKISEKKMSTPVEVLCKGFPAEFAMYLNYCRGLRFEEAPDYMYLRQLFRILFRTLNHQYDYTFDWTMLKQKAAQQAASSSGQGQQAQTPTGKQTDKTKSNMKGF

In the case of `Cc1nocc1CC(=O)Nc1cc(-c2[nH]c3cccnc3c2-c2ccccn2)ccn1` [Example 30, 2-(3-methylisoxazol-4-yl)-N-[4-[3-(2-pyridyl)-^1H-pyrrolo[3,2-b]pyridin-2-yl]-2-pyridyl]acetamide], the IC50 came out at 226 nM with total-p53 in MCF-7 cells (setting [2]), 10500 nM with LoVo cells (Homo sapiens) and 2.62 nM on human CSNK1A1. Moreover, the solubility thermodynamic at 24 h is 5.8 mg/L in data set [1] (setting [3]) and 14.1 µmol/L in data set [1] (setting [4]).

Take `Cc1ocnc1CC(=O)Nc1cc(-c2[nH]c3cccnc3c2-c2ccccn2)ccn1` [Example 11, 2-(5-methyloxazol-4-yl)-N-[4-[3-(2-pyridyl)-^1H-pyrrolo[3,2-b]pyridin-2-yl]-2-pyridyl]acetamide]: the IC50 worked out at 375 nM in the data set on total-p53 in MCF-7 cells (setting [2]), 3320 nM in the data set on LoVo cells (Homo sapiens) and 3.43 nM at human CSNK1A1. The solubility thermodynamic at 24 h in data set [1] (setting [3]) was 8.4 mg/L; in data set [1] (setting [4]), 20.5 µmol/L.

As to `Cc1nn(C)cc1CC(=O)Nc1cc(-c2[nH]c3cccnc3c2-c2ccccn2)ccn1` [Example 9, 2-(1,3-dimethylpyrazol-4-yl)-N-[4-[3-(2-pyridyl)-^1H-pyrrolo[3,2-b]pyridin-2-yl]-2-pyridyl]acetamide], the IC50 in the data set on total-p53 in MCF-7 cells (setting [2]) worked out at 210 nM; with LoVo cells (Homo sapiens) it was 4070 nM; on human CSNK1A1 it was 2.61 nM. Besides, the solubility thermodynamic at 24 h in data set [1] (setting [3]) was 1.3 mg/L; in data set [1] (setting [4]), 3.07 µmol/L.

Regarding `O=C(Cc1ccn(CC(F)(F)F)n1)Nc1cc(-c2[nH]c3cccnc3c2-c2ccccn2)ccn1` [Example 20, N-[4-[3-(2-pyridyl)-^1H-pyrrolo[3,2-b]pyridin-2-yl]-2-pyridyl]-2-[1-(2,2,2-trifluoroethyl)pyrazol-3-yl]acetamide], the results for the IC50 with total-p53 in MCF-7 cells (setting [2]), in the data set with LoVo cells (Homo sapiens) and on human CSNK1A1 were 184 nM, 1370 nM and 1.88 nM, respectively. The solubility thermodynamic at 24 h in data set [1] (setting [3]) was determined as 23.9 mg/L; in data set [1] (setting [4]), 50.1 µmol/L.

For the compound `Cc1cc(CC(=O)Nc2cc(-c3[nH]c4cccnc4c3-c3ccccn3)ccn2)no1` [Example 26, 2-(5-methylisoxazol-3-yl)-N-[4-[3-(2-pyridyl)-^1H-pyrrolo[3,2-b]pyridin-2-yl]-2-pyridyl]acetamide], the IC50 was 176 nM in the data set with total-p53 in MCF-7 cells (setting [2]), 2100 nM in the data set with LoVo cells (Homo sapiens) and 2.03 nM on human CSNK1A1. Also, the solubility thermodynamic at 24 h is 6.1 mg/L in data set [1] (setting [3]) and 14.9 µmol/L in data set [1] (setting [4]).

As to `O=C(Nc1cc(-c2[nH]c3nccnc3c2-c2ccccn2)ccn1)[C@@H](CC(F)F)c1ccc(F)cc1` [Example C1, reference compound], the IC50 in the data set with total-p53 in MCF-7 cells (2 h incubation) was determined as 72.8 nM; in the data set with LoVo cells, 211 nM; at human CSNK1A1 it was 1.25 nM. Also, the “Thermodynamic Solubility [mg/l] (mean)” value in data set [1] (24 h) amounted to 9.60 mg/L. For the same compound, the “Thermodynamic Solubility [μmol/L] (mean)” value in data set [1] (24 h) was 21.55 µmol/L.

For `O=C(Cc1cnc2ccccn12)Nc1cc(-c2[nH]c3cccnc3c2-c2ccccn2)ccn1` [Example 1, 2-imidazo[1,2-a]pyridin-3-yl-N-[4-[3-(2-pyridyl)-^1H-pyrrolo[3,2-b]pyridin-2-yl]-2-pyridyl]acetamide], the figures for the IC50 in the data set with total-p53 in MCF-7 cells (setting [2]), with LoVo cells (Homo sapiens) and at human CSNK1A1 were 193 nM, 12400 nM and 5.89 nM, respectively. Moreover, the solubility thermodynamic at 24 h in data set [1] (setting [3]) stood at 9.6 mg/L; in data set [1] (setting [4]) it was 21.6 µmol/L.

As to `Cc1nc(C)c(CC(=O)Nc2cc(-c3[nH]c4cccnc4c3-c3ccccn3)ccn2)s1` [Example 18, 2-(2,4-dimethylthiazol-5-yl)-N-[4-[3-(2-pyridyl)-^1H-pyrrolo[3,2-b]pyridin-2-yl]-2-pyridyl]acetamide], the IC50 with total-p53 in MCF-7 cells (setting [2]) is 56.6 nM; in the data set on LoVo cells (Homo sapiens), 1130 nM; at human CSNK1A1, 1.46 nM. In addition, the solubility thermodynamic at 24 h in data set [1] (setting [3]) was found to be 5.4 mg/L; in data set [1] (setting [4]), 12.3 µmol/L.
